Columns and labels:
[1] = system: L. donovani intracellular amastigotes in B10R cells; assay: UCSD L. donovani infection assay (Assay Conditions D); format: cell-based; conditions: B10R cells
Outline: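 Compounds, either single-point at 10 μM or 10-point 2-fold series (3 technical, 2 biological replicates), were incubated 72 h at 37° C. with B10R host cells co-seeded with day-7 stationary L. donovani promastigotes (20:1). DAPI-stained nuclei imaging yielded intracellular parasite EC50 and host-cell CC50.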

[2] = UCSD infection assay, host cell cytotoxicity (CC50); format: cell-based; conditions: mouse, B10R host cells infected with L. donovani; host B10R cells
Procedure: (§1) Assay Conditions D: B10R cells (CVCL_0155) were seeded at 300 cells/well, and L. donovani WT promastigotes in stationary phase (7th day after passage) were added at 6,000 parasites/well (ratio of 20 parasites/cell). Both cells and parasites were seeded in DMEM High-Glucose medium (Gibco, cat. no. 11995065) containing 5% Fetal Bovine Serum (Sigma-Aldrich, cat. no. F2442) and 1% Penicillin-Streptomycin (Gibco, cat. no. 15140122). Cells and parasites were incubated in the presence of the compounds for 72 h at 37° C. and 5% C02. Plates were then fixed with 4% formaldehyde solution for at least 1 h, then washed with 1×PBS and stained with 5 μg/mL DAPI. Plates were read using an ImageXpress microscope (Molecular Devices) and analyzed by MetaXpress software (Molecular Devices) using a custom module optimized for this assay. […] Compounds were tested in a 10-point 2-fold serial dilution in 3 technical replicates, and 2 biological replicates. After 72 h, plates were fixed and stained with DAPI as described above. Images were acquired on an ImageXpress microscope, and analyzed using the MetaXpress custom module.
as §1, with “Compounds were obtained as 0.2 μmoles of dried film for primary single point screening. Each compound was diluted in DMSO to 10 μM final testing concentration. These compounds were tested in 2 biological replicates. The compounds were pre-spotted onto 384-well assay plates in single concentration.” for “Assay Conditions D:”, “CO2.” for “C02.”, “module. The DRCs were plotted, half-effective concentration (EC50) and half-cytotoxic concentration (CC50) were calculated using GraphPad Prism Software, version 6.05 (GraphPad Software, San Diego, CA).” for “module.”

| SMILES | L. donovani amastigotes EC75 (μM, B10R cells) [1] | CC50 at 72 h [2] |
| --- | --- | --- |
| Cc1ccc(N2C(=O)c3[nH]nc(CC(C)C)c3C2c2ccc(Cl)cc2F)cn1 (centres unmarked) [BUCMD00627] | >10 µM | 10 µM |
| Cc1ccc(N2C(=O)c3[nH]nc(CC(C)C)c3C2c2ccccc2C)cn1 (centres unmarked) [BUCMD00628] | 3.2 µM | 15.8 µM |
| Cc1ccc(N2C(=O)c3[nH]nc(CC(C)C)c3C2c2ccccc2Cl)cn1 (centres unmarked) [BUCMD00640] | 3.4 µM | 12.6 µM |
| Cc1ccc(N2C(=O)c3[nH]nc(CC(C)C)c3C2c2ccc(Br)cc2F)cn1 (centres unmarked) [BUCMD00641] | >10 µM | 12.6 µM |
| Cc1ccc(N2C(=O)c3[nH]nc(CC(C)C)c3C2c2ccc(F)cc2Cl)cn1 (centres unmarked) [BUCMD00642] | 1.3 µM | 10 µM |
| COc1ccc(N2C(=O)c3[nH]nc(CC(C)C)c3C2c2ccccc2C)nc1 (centres unmarked) [BUCMD00645] | >10 µM | 20 µM |
| COc1ccc(N2C(=O)c3[nH]nc(CC(C)C)c3C2c2ccc(F)cc2C)nc1 (centres unmarked) [BUCMD00646] | >10 µM | 12.6 µM |
| COc1ccc(N2C(=O)c3[nH]nc(CC(C)C)c3C2c2ccccc2Cl)nc1 (centres unmarked) [BUCMD00647] | >10 µM | 10 µM |
| COc1ccc(N2C(=O)c3[nH]nc(CC(C)C)c3C2c2ccc(Br)cc2F)nc1 (centres unmarked) [BUCMD00648] | >10 µM | 3.98 µM |
| CC(C)Cc1n[nH]c2c1C(c1ccccc1C(F)(F)F)N(c1cncc(F)c1)C2=O (centres unmarked) [BUCMD00699] | 1.4 µM | 5.01 µM |
| CC(C)Cc1n[nH]c2c1C(c1ccccc1F)N(c1cncc(F)c1)C2=O (centres unmarked) [BUCMD00700] | 1.3 µM | 10 µM |
| CC(C)Cc1n[nH]c2c1C(c1ccc(F)cc1Cl)N(c1ccc(C(=O)N3CCCC3)cc1)C2=O (centres unmarked) [BUCMD00711] | >10 µM | 5.01 µM |
| CC(C)Cc1n[nH]c2c1C(c1ccc(Cl)cc1Cl)N(c1ccc(C(=O)N3CCCC3)cc1)C2=O (centres unmarked) [BUCMD00712] | >10 µM | 1.58 µM |
| Cc1ccccc1C1c2c(CC(C)C)n[nH]c2C(=O)N1c1ccc(C(=O)N2CCCC2)cc1 (centres unmarked) [BUCMD00713] | >10 µM | 10 µM |
| CC(C)Cc1n[nH]c2c1C(c1ccc(F)cc1F)N(c1ccc(C(=O)N3CCCC3)cc1)C2=O (centres unmarked) [BUCMD00714] | >10 µM | 10 µM |
| Cc1cc(F)ccc1C1c2c(CC(C)C)n[nH]c2C(=O)N1c1ccc(N2CCN(C)CC2)nc1 (centres unmarked) [BUCMD00717] | 1.0 µM | 7.94 µM |

From patent publication US20230381142A1, “ANTILEISHMANIAL COMPOUNDS, COMPOSITIONS AND USE THEREOF” (TRUSTEES OF BOSTON UNIVERSITY, priority 2022, published 2023)
